The source of these data is patent publication US11471537B2, “Oligomer extended insulin-Fc conjugates” (Novo Nordisk A/S, priority 2017, dated 2022).

One data set relates to Sprague-Dawley rats. The experiment in a line: PD studies: blood glucose after subcutaneous dosing. Type of data set: in vivo. The conditions noted are these: sc, dose 30 nmol/kg. In outline: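 Normal male Sprague-Dawley rats (~350 g), fed ad libitum, received a single subcutaneous neck dose of 30 nmol/kg unless otherwise stated. Tongue-vein blood was sampled up to 10 days post-dose for blood glucose (Biosen analyser) and plasma insulin.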

The next data set relates to isolated rat adipocytes. The experiment in a line: Insulin-stimulated lipogenesis. The format is cell-based. The conditions noted are these: 1% HSA; relative to the activity of human insulin (100%). On the procedure:
Insulin-stimulated lipogenesis was measured in isolated rat adipocytes in presence of 1% HSA as described in Moody A J, Stan M A, Stan M, Gliemann J. A Simple Free Fat Cell Bioassay for Insulin. Hormone And Metabolic Research. 1974; 6(1):12-6, see results in Table 6.

In a further data set the target is insulin receptor A (Homo sapiens, UniProt P06213). The experiment in a line: Insulin receptor affinity. Type of data set: binding. Conditions: relative to affinity of human insulin for insulin receptor A (100%).
Data set [1] can be described thus: PK studies: intravenous and subcutaneous administration to SD rats, insulin-Fc concentrations by immuno-assay. Type of data set: in vivo. Conditions: for PK rat sc [T½ (h)] Mean Value: subcutaneous. As to the method: Insulin-Fc conjugates were tested in vivo by intravenous and subcutaneous administration to SD rats. Blood samples were collected and the insulin-Fc concentrations were measured by immuno-assay.

insulin receptor A, sequence (P06213 28-1370 isoform P06213-2 limits assumed): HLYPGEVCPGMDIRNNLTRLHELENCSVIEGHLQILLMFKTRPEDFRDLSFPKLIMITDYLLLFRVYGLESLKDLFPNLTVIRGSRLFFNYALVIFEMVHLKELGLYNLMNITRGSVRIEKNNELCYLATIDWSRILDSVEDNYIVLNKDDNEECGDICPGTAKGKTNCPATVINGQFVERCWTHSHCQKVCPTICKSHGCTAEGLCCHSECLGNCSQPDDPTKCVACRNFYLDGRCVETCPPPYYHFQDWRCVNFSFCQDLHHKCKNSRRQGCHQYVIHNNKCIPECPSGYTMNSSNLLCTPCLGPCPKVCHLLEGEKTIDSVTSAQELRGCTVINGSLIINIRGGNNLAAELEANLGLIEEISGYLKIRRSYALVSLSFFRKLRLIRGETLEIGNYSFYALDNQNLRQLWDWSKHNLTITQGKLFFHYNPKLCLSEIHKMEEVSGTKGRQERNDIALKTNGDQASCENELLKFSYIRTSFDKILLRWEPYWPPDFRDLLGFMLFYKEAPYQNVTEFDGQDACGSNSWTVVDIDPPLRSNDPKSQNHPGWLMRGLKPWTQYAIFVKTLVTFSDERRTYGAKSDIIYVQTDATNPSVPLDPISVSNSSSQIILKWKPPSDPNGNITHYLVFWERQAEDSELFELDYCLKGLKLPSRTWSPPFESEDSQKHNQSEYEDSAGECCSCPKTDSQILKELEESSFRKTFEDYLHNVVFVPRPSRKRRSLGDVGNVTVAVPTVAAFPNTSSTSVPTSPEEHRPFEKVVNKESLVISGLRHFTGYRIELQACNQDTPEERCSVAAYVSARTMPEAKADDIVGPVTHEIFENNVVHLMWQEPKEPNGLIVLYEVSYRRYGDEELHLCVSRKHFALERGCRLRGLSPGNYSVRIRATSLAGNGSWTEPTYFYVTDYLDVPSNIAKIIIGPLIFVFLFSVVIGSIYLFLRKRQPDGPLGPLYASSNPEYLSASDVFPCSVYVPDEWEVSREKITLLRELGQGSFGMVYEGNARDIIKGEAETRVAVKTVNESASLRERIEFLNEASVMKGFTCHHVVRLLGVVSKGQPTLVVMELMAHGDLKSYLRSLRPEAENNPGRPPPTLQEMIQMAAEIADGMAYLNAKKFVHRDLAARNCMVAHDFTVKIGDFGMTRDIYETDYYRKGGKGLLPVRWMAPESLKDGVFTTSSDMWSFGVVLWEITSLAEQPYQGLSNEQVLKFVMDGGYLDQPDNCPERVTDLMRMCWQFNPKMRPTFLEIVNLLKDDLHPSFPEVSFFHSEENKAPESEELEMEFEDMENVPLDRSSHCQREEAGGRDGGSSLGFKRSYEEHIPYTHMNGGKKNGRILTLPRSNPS
insulin receptor A, sequence (P06213 763-1382 partner limits assumed): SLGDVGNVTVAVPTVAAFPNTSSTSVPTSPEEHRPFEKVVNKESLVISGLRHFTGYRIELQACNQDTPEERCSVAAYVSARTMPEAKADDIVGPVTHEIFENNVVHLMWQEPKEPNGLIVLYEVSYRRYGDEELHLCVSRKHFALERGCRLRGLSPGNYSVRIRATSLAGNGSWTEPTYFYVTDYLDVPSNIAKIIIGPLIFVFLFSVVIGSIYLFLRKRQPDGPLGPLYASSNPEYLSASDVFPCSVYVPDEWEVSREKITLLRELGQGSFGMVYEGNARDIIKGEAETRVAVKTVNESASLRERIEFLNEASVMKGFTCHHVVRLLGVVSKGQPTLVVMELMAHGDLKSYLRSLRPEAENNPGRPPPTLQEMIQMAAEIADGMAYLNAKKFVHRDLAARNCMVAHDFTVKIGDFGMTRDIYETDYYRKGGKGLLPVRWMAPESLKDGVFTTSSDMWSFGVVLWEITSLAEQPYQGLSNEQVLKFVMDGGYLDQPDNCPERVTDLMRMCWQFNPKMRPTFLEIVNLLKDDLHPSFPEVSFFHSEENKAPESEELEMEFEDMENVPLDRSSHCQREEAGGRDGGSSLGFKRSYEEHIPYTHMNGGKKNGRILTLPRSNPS

On to “A14E, A21G, A22(GQAPGQEP)6, A70K^, A71P, B25H, B29R, desB30 human insulin/(227A, 234A, 235K, 297E, 315Q, 384Q, des447 hIgG4-Fc(228-447))4-[bis[2-[(2-acetyl)amino]ethyl]amino]-4-oxo-butanoyl Conjugate [Example 5.14]”, for which the Average blood glucose is 6.248 mM in the data set with Sprague-Dawley rats (time 0 days); 5.32 mM with Sprague-Dawley rats (time 0.041667 days); 4.08 mM in the data set on Sprague-Dawley rats (time 0.125 days); 3.048 mM in the data set with Sprague-Dawley rats (time 0.291667 days); 2.356 mM in the data set with Sprague-Dawley rats (time 1 day); 2.4 mM with Sprague-Dawley rats (time 2 days). The Average blood glucose in the data set with Sprague-Dawley rats (time 3 days) is reported as 2.832 mM; with Sprague-Dawley rats (time 4 days), 4.304 mM; in the data set with Sprague-Dawley rats (time 6 days), 6.032 mM; in the data set with Sprague-Dawley rats (time 7 days) it was 6.076 mM; with Sprague-Dawley rats (time 8 days), 5.5 mM. Further, the “Lipogenesis in rat adipocytes [Potency (%)] Mean Value” in the data set on isolated rat adipocytes worked out at 4.86%. Besides, at insulin receptor A, the “Insulin receptor affinity [IC50 relative to HI (%)] Mean Value” is recorded as 5.37%. For the same substance, the “PK rat iv [T½ (h)] Mean Value” in data set [1] is 46.6 h. Also, the “PK rat sc [T½ (h)] Mean Value” in data set [1] worked out at 54.0 h.

On to “(A14E, A21G, A22(GQAP)24, A118G, A119Q, A120A, A121K^, A122P, B25H, B29R, desB30 human insulin)/(227A, 234A, 235K, 297E, 315Q, 384Q, des447 hIgG4-Fc(228-447))4-[bis[2-[(2-acetyl)amino]ethyl]amino]-4-oxo-butanoyl Conjugate [Example 5.23]”, for which the Average blood glucose in the data set on Sprague-Dawley rats (time 0 days) was 5.384 mM; in the data set on Sprague-Dawley rats (time 0.041667 days), 5.768 mM; in the data set on Sprague-Dawley rats (time 0.125 days), 4.808 mM; in the data set on Sprague-Dawley rats (time 0.291667 days), 4.136 mM; with Sprague-Dawley rats (time 1 day), 2.86 mM; in the data set on Sprague-Dawley rats (time 2 days) it was 2.6 mM. The Average blood glucose in the data set on Sprague-Dawley rats (time 3 days) was determined as 3.536 mM; with Sprague-Dawley rats (time 4 days), 5.544 mM; in the data set with Sprague-Dawley rats (time 5 days), 5.684 mM; in the data set on Sprague-Dawley rats (time 6 days) it was 5.796 mM; in the data set on Sprague-Dawley rats (time 7 days), 6.056 mM; with Sprague-Dawley rats (time 8 days), 5.672 mM. For the same substance, the Average blood glucose with Sprague-Dawley rats (time 9 days) was 5.62 mM; in the data set on Sprague-Dawley rats (time 10 days), 6.308 mM. For the same substance, the “Lipogenesis in rat adipocytes [Potency (%)] Mean Value” in the data set on isolated rat adipocytes is given as 5.36%. On insulin receptor A, the “Insulin receptor affinity [IC50 relative to HI (%)] Mean Value” was 4.70%. The “PK rat iv [T½ (h)] Mean Value” in data set [1] stood at 57.1 h. The “PK rat sc [T½ (h)] Mean Value” in data set [1] amounted to 73.2 h.

Turning to “A14E, A21G, A22(GQAPGQAPGQEP)6-GQAP, A98K^, A99P, B29R, desB30 human insulin/(227A, 234A, 235K, 297E, 315Q, 384Q, des447 hIgG4-Fc(228-447))4-[bis[2-[(2-acetyl)amino]ethyl]amino]-4-oxo-butanoyl Conjugate [Example 5.19]”, the Average blood glucose in the data set on Sprague-Dawley rats (time 0 days) is 6.4 mM; in the data set with Sprague-Dawley rats (time 0.041667 days), 5.988 mM; in the data set with Sprague-Dawley rats (time 0.125 days), 4.92 mM; with Sprague-Dawley rats (time 0.291667 days) it was 3.84 mM; in the data set with Sprague-Dawley rats (time 1 day), 2.632 mM; in the data set on Sprague-Dawley rats (time 2 days), 2.62 mM. The Average blood glucose with Sprague-Dawley rats (time 3 days) was 4.312 mM; with Sprague-Dawley rats (time 4 days) it was 6.104 mM; in the data set with Sprague-Dawley rats (time 6 days), 5.9 mM; in the data set with Sprague-Dawley rats (time 7 days), 6.128 mM; in the data set with Sprague-Dawley rats (time 8 days), 5.512 mM. The “Lipogenesis in rat adipocytes [Potency (%)] Mean Value” in the data set on isolated rat adipocytes is 3.02%. In addition, the “Insulin receptor affinity [IC50 relative to HI (%)] Mean Value” at insulin receptor A turned out to be 4.00%. For the same substance, in data set [1], the “PK rat iv [T½ (h)] Mean Value” was determined as 30.8 h. Also, the “PK rat sc [T½ (h)] Mean Value” in data set [1] amounted to 55.0 h.

“(A14E, A21G, A22(GQAP)19, A98K^, A99P, B25H, B29R, desB30 human insulin)/(227A, 234A, 235K, 297E, 315Q, 384Q, des447 hIgG4-Fc(228-447))4-[bis[2-[(2-acetyl)amino]ethyl]amino]-4-oxo-butanoyl Conjugate [Example 5.15]”: the Average blood glucose in the data set with Sprague-Dawley rats (time 0 days) was found to be 6.748 mM; in the data set on Sprague-Dawley rats (time 0.041667 days), 6.168 mM; with Sprague-Dawley rats (time 0.125 days) it was 5.052 mM; with Sprague-Dawley rats (time 0.291667 days), 3.292 mM; in the data set on Sprague-Dawley rats (time 1 day), 2.524 mM; with Sprague-Dawley rats (time 2 days), 2.752 mM. Also, the Average blood glucose in the data set with Sprague-Dawley rats (time 3 days) was found to be 4.116 mM; in the data set on Sprague-Dawley rats (time 4 days), 5.744 mM; with Sprague-Dawley rats (time 6 days) it was 6.32 mM; in the data set on Sprague-Dawley rats (time 7 days), 6.516 mM; in the data set on Sprague-Dawley rats (time 8 days), 5.904 mM. For the same substance, in the data set with isolated rat adipocytes, the “Lipogenesis in rat adipocytes [Potency (%)] Mean Value” came to 3.68%. In addition, the “Insulin receptor affinity [IC50 relative to HI (%)] Mean Value” at insulin receptor A is on record as 3.68%. Besides, the “PK rat iv [T½ (h)] Mean Value” in data set [1] was 58.4 h. In data set [1], the “PK rat sc [T½ (h)] Mean Value” came out at 67.6 h.

With “(A14E, A21G, A22(GQAP)19, A98K^, A99P, B25H, B29R, desB30 human insulin)/(227A, 234A, 235K, 297E, 315Q, 384Q, des447 hIgG4-Fc(228-447))6-[bis[2-[(2-acetyl)amino]ethyl]amino]-6-oxo-hexanoyl conjugate [Example 5.16]”, the Average blood glucose with Sprague-Dawley rats (time 0 days) came out at 6.544 mM; with Sprague-Dawley rats (time 0.041667 days), 5.972 mM; in the data set with Sprague-Dawley rats (time 0.125 days), 4.74 mM; with Sprague-Dawley rats (time 0.291667 days), 4.028 mM; in the data set with Sprague-Dawley rats (time 1 day) it was 2.42 mM; in the data set with Sprague-Dawley rats (time 2 days), 2.592 mM. In addition, the Average blood glucose in the data set with Sprague-Dawley rats (time 3 days) was 3.156 mM; in the data set on Sprague-Dawley rats (time 4 days), 5.7 mM; in the data set on Sprague-Dawley rats (time 6 days), 5.784 mM; in the data set with Sprague-Dawley rats (time 7 days), 5.848 mM; with Sprague-Dawley rats (time 8 days), 5.72 mM. Further, the “Lipogenesis in rat adipocytes [Potency (%)] Mean Value” in the data set on isolated rat adipocytes turned out to be 4.34%. Further, the “Insulin receptor affinity [IC50 relative to HI (%)] Mean Value” at insulin receptor A amounted to 3.86%. Besides, the “PK rat iv [T½ (h)] Mean Value” in data set [1] is on record as 25.7 h. Further, the “PK rat sc [T½ (h)] Mean Value” in data set [1] was 36.2 h.

For the substance “A14E, B(−78K^), B(−77P), B(−1)(GQEP)19, B25H, B29R, desB30 human insulin/(227A, 234A, 235K hIgG4-Fc(228-447))4-[bis[2-[(2-acetyl)amino]ethyl]amino]-4-oxo-butanoyl Conjugate [Example 5.4]”, the “Lipogenesis in rat adipocytes [Potency (%)] Mean Value” with isolated rat adipocytes came to 0.36%. The “Insulin receptor affinity [IC50 relative to HI (%)] Mean Value” at insulin receptor A is 2.14%. In addition, in data set [1], the “PK rat iv [T½ (h)] Mean Value” is 26.4 h and the “PK rat sc [T½ (h)] Mean Value” amounted to 32.2 h.

For the substance “A14E, B(−78K^), B(−77P), B(−1)(GQEP)19, B25H, B29R, desB30 human insulin/(227A, 234A, 235K, 297E, 315Q, 384Q, des447 hIgG4-Fc(228-447))4-[bis[2-[(2-acetyl)amino]ethyl]amino]-4-oxo-butanoyl Conjugate [Example 5.11]”, the “Lipogenesis in rat adipocytes [Potency (%)] Mean Value” with isolated rat adipocytes came out at 0.39%. For the same substance, the “Insulin receptor affinity [IC50 relative to HI (%)] Mean Value” at insulin receptor A is listed as 1.72%. In data set [1], the “PK rat iv [T½ (h)] Mean Value” is given as 30.7 h and the “PK rat sc [T½ (h)] Mean Value” is on record as 33.1 h.

With “A14E, B(−78K^), B(−77P), B(−1)(GQAP)19, B25H, B29R, desB30 human insulin/(227A, 234A, 235K, 297E, 315Q, 384Q, des447 hIgG4-Fc(228-447))4-[bis[2-[(2-acetyl)amino]ethyl]amino]-4-oxo-butanoyl Conjugate [Example 5.18]”, in the data set with isolated rat adipocytes, the “Lipogenesis in rat adipocytes [Potency (%)] Mean Value” was 0.87%. In addition, the “Insulin receptor affinity [IC50 relative to HI (%)] Mean Value” on insulin receptor A is on record as 2.78%. Also, in data set [1], the “PK rat iv [T½ (h)] Mean Value” turned out to be 24.9 h and the “PK rat sc [T½ (h)] Mean Value” turned out to be 28.0 h.
